# From US6632809B2, “Gyrase inhibitors and uses thereof” (Vertex Pharmaceuticals Incorporated, priority 2000, dated 2003)
# Target: DNA gyrase (374 kDa Gyr A2B2 subunit from Staphylococcus aureus) (Staphylococcus aureus, UniProt P0A0K8)
# Assay: Gyrase ATPase Assay
# Type: biochemical
# Details: 10 μM concentration; ATPase assay at 30° C., 0.9 mM ATP; average of duplicate values
# Experimental: The ATP hydrolysis activity of DNA gyrase was measure by coupling the production of ADP through pyruvate kinase/lactate dehydrogenase to the oxidation of NADH. This method has been described previously (Tamura and Gellert, 1990, J. Biol. Chem., 265, 21342).
# ATPase assays are carried out at 30° C. in buffered solutions containing 100 mM TRIS pH 7.6, 1.5 mM MgCl2, 50 mM KCl. The coupling system contains (final concentrations) 2.5 mM phosphoenol pyruvate, 200 μM nicotinamide adenine dinucleotide (NADH), 1 mM DTT, […], and 10 ug/ml lactate dehydrogenase. 40 nanomolar enzyme (374 kDa Gyr A2B2 subunit from Staphylococcus aureus) and a DMSO solution of the inhibitor to a final concentration of 4% are added and the reaction mixture is allowed to incubate for 10 minutes at 30° C. The reaction is then started by the addition of ATP to a final concentration of 0.9 mM and the rate of NADH disappearance at 340 nanometers is measured over the course of 10 minutes. The percent inhibition values are determined from rate versus concentration profiles and are reported as the average of duplicate values.
# The compound numbers correspond to the compound numbers in Table 1. Compounds having an activity designated as “A” provided a percent inhibition value below 50 percent; compounds having an activity designated as “B” provided a percent inhibition value between 50 and 75 percent; and compounds having an activity designated as “C” provided a percent inhibition value greater than 75 percent.
# Chain of DNA gyrase (374 kDa Gyr A2B2 subunit from Staphylococcus aureus) (P0A0K8 whole entry): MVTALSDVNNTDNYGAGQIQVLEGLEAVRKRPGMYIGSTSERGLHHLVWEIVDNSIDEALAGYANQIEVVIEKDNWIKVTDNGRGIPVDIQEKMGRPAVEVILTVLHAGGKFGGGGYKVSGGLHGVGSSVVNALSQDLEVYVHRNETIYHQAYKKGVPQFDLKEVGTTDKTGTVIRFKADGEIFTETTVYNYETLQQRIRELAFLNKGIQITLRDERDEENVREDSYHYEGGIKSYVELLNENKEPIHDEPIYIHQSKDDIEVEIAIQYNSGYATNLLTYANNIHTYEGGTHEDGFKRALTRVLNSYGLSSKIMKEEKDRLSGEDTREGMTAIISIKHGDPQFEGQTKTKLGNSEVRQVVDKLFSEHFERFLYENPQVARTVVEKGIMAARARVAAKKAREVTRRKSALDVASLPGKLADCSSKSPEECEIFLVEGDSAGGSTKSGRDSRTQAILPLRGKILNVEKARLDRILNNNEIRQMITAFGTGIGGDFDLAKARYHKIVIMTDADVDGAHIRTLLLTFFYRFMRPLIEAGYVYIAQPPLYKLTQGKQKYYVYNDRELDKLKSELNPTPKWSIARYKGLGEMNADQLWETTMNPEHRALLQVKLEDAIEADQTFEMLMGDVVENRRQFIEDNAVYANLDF
# Chain of DNA gyrase (374 kDa Gyr A2B2 subunit from Staphylococcus aureus) (P20831 whole entry, further chain): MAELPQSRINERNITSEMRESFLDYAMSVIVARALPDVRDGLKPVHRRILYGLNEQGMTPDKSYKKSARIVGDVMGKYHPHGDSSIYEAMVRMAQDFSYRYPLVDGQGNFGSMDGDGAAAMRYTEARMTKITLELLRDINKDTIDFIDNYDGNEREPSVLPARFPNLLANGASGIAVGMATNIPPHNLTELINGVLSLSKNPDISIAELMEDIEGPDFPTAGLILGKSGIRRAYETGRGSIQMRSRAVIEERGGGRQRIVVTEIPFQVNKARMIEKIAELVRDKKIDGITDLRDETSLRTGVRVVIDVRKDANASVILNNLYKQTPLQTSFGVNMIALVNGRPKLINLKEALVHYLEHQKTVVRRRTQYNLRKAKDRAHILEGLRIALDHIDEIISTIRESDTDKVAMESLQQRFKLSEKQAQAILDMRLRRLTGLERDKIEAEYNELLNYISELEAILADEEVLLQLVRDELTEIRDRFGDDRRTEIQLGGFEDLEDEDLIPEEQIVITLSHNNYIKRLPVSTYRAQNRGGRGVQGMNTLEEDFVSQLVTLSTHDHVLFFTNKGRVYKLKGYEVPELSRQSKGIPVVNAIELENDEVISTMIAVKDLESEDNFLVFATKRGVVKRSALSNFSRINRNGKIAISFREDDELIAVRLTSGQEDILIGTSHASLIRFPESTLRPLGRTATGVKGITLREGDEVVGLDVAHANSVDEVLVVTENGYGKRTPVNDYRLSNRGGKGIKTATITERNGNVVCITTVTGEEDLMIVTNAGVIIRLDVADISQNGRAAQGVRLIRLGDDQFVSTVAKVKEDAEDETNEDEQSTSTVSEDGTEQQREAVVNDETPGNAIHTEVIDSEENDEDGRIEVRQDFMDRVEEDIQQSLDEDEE
row,SMILES,Gyrase Inhibitory Activity (percent inhibition)
1,CCNC(=S)Nc1nc2cc(-c3ccccc3)ccc2[nH]1 [Ia-36],A (provided a percent inhibition value below 50 percent)

# Same assay, conditions: 10 μM concentration; ATPase assay at 30° C., 0.9 mM ATP; average of duplicate values; read-out: Gyrase Inhibitory Activity (percent inhibition)
row,SMILES,inhibition at 10 µM
1,CCNC(=O)Nc1nc2cc(-c3cccnc3)cc(Cl)c2[nH]1 [Ia-134],> 75%
2,CCNC(=O)Nc1nc2cc(-c3cccc(F)c3)ccc2[nH]1 [Ia-155],< 50%
3,CCNC(=O)Nc1nc2cc(-c3cccnc3)c(F)cc2[nH]1 [Ia-62],> 75%
4,CCNC(=O)Nc1nc2cc(-c3cnc(NC4CCCC4)nc3)ccc2[nH]1 [Ia-57],> 75%
5,CCNC(=O)Nc1nc2cc(-c3cnc(NC(C)COC)nc3)ccc2[nH]1 (stereo not drawn) [Ia-100],> 75%
6,CCNC(=O)Nc1nc2cc(-c3cncc(C(=O)O)c3)ccc2[nH]1 [Ia-60],> 75%
7,CCNC(=O)Nc1nc2cc(-c3cnc(NCC4CCCO4)nc3)ccc2[nH]1 (stereo not drawn) [Ia-47],> 75%
8,CCNC(=O)Nc1nc2cc(-c3cnc(NCCc4ccccn4)nc3)ccc2[nH]1 [Ia-63],> 75%
9,CC(C)(C)OCC(Nc1ncc(-c2ccc3[nH]c(NC#N)nc3c2)cn1)C(=O)OC(C)(C)C (stereo not drawn) [Ia-41],< 50%
10,CCNC(=O)Nc1nc2cc(-c3cnc(N4CCCC4)nc3)ccc2[nH]1 [Ia-65],> 75%
11,CCNC(=N)Nc1nc2cc(-c3ccccc3)ccc2[nH]1 [Ia-101],< 50%
12,CCNC(=O)Nc1nc2cc(-c3cnc(NC(COC(C)(C)C)C(=O)OC(C)(C)C)nc3)ccc2[nH]1 (stereo not drawn) [Ia-40],> 75%
13,CCOC(=O)Nc1nc2cc(-c3ccccc3)ccc2[nH]1 [Ia-1],50 to 75%
14,CCOC(=O)Nc1nc2cc(-c3ccccc3)ccc2n1C [Ia-10],< 50%
15,CCNC(=O)Nc1nc2cc(-c3ccc(CNC(=O)OC(C)(C)C)cc3)ccc2[nH]1 [Ia-135],> 75%
16,CCNC(=O)Nc1nc2cc(-c3cnc(N)nc3)c(OC)cc2[nH]1 [Ia-126],> 75%
17,CCNC(=O)Nc1nc2cc(C(=O)NOC(C)(C)C)ccc2[nH]1 [Ia-46],< 50%
18,CCOC(=O)Nc1cncc(-c2ccc3[nH]c(NC(=O)OCC)nc3c2)c1 [Ia-87],> 75%
19,CCNC(=O)Nc1nc2cc(-c3cnc(N4CCCC4COC)nc3)ccc2[nH]1 (stereo not drawn) [Ia-130],> 75%
20,"CCOC(=O)Nc1nc2cc(-c3cccnc3)ccc2[nH]1 [Ia-11, (5-Pyridin-3-yl-1H-benzoimidazol-2-yl)-carbamic acid ethyl ester]",> 75%
21,CCNC(=O)Nc1nc2cc(-c3cnc(NCc4ccccn4)nc3)ccc2[nH]1 [Ia-48],> 75%
22,CCOC(=O)Nc1nc2cc(-c3ccc4[nH]c(NC(=O)OCC)nc4c3)ccc2[nH]1 [Ia-67],> 75%
23,O=C(Nc1nc2cc(-c3cccnc3)ccc2[nH]1)NC1CC1 [Ia-38],50 to 75%
24,CCNC(=O)Nc1nc2cc(-c3ccccc3)cc(OC)c2[nH]1 [Ia-50],50 to 75%
25,CCOC(=O)Nc1nc2cc(-c3cncnc3)ccc2[nH]1 [Ia-21],> 75%
26,CCOC(=O)Nc1nc2cc(-c3cnc(NCCNC(=O)OC(C)(C)C)nc3)ccc2[nH]1 [Ia-86],> 75%
27,CCOC(=O)Nc1nc2cc(-c3ccccn3)ccc2[nH]1 [Ia-3],50 to 75%

row,SMILES,inhibition at 10 µM
1,CCNC(=O)Nc1nc2cc(-c3cnc(NCC)nc3)ccc2[nH]1 [Ia-66],> 75%
2,CCNC(=O)Nc1nc2cc(N3CCOCC3)ccc2[nH]1 [Ia-176],< 50%
3,CCNC(=O)Nc1nc2cc(-c3cnc(N4CCC(O)C4)nc3)ccc2[nH]1 (stereo not drawn) [Ia-129],> 75%
4,CNc1nc2cc(-c3cccnc3)ccc2n1CCN(C)C [Ia-79],< 50%
5,CCNC(=O)Nc1nc2cc(-c3ccc(F)nc3)ccc2[nH]1 [Ia-136],> 75%
6,CCOC(=O)Nc1nc2cc(-c3cnc(NC(COC(C)(C)C)C(=O)OC(C)(C)C)nc3)ccc2[nH]1 (stereo not drawn) [Ia-93],> 75%
7,CCNC(=O)Nc1nc2cc(-n3cc(C(=O)N4CCOCC4)cn3)ccc2[nH]1 [Ia-172],> 75%
8,CCNC(=O)Nc1nc2cc(-c3cnc(NCCCOC)nc3)ccc2[nH]1 [Ia-102],> 75%
9,CCNC(=O)Nc1nc2cc(-c3cnc(NCc4ccc5c(c4)OCO5)nc3)ccc2[nH]1 [Ia-128],> 75%
10,CCCCNc1nc2cc(-c3cccnc3)ccc2[nH]1 [Ia-73],< 50%
11,CCOC(=O)Nc1nc2cc(-c3ccncc3)ccc2[nH]1 [Ia-4],> 75%
12,CN(C)CCn1c(N)nc2cc(-c3cccnc3)ccc21 [Ia-78],< 50%
13,COC(=O)Nc1nc2cc(-c3ccccc3)ccc2[nH]1 [Ia-7],< 50%
14,CCOC(=O)Nc1nc2cc(-c3ccc(OC)c(OC)c3)ccc2[nH]1 [Ia-26],50 to 75%
15,CCNC(=O)Nc1nc2cc(-c3cnc(OC)nc3OC)ccc2[nH]1 [Ia-52],> 75%
16,CCN/C(=N\C)Nc1nc2cc(-c3ccccc3)ccc2[nH]1 [Ia-97],< 50%
17,CCOC(=O)Nc1nc2cc(-c3cnc(N4CCNCC4)nc3)ccc2[nH]1 [Ia-70],> 75%
18,CCNC(=O)Nc1nc2cc(-c3cnc(NCc4cccc(F)c4)nc3)ccc2[nH]1 [Ia-56],> 75%
19,CCOC(=O)Nc1nc2cc(-c3cnc(NCCN)nc3)ccc2[nH]1 [Ia-88],> 75%
20,CCCC(=O)Nc1nc2cc(-c3ccccc3)ccc2[nH]1 [Ia-82],< 50%
21,CCNC(=O)Nc1nc2cc(-c3cnc(N4CCN(S(C)(=O)=O)CC4)nc3)ccc2[nH]1 [Ia-124],50 to 75%
22,COC(=O)Nc1nc2cc(-c3cnc(NCC(=O)OC(C)(C)C)nc3)ccc2[nH]1 [Ia-76],> 75%
23,CCNC(=O)Nc1nc2cc(-c3cccnc3)cc(OC)c2[nH]1 [Ia-108],> 75%
24,CCNC(=O)Nc1nc2cc(-c3ccc(OC)nc3)ccc2[nH]1 [Ia-132],> 75%
25,CCNC(=O)Nc1nc2cc(-c3cnc(N4CCN(C)CC4)nc3)ccc2[nH]1 [Ia-64],> 75%
26,CCOC(=O)Nc1nc2cc(-c3cnc(NC(CO)C(=O)O)nc3)ccc2[nH]1 (stereo not drawn) [Ia-94],> 75%
27,CCOC(=O)Nc1nc2cc(-c3ccc(N(C)C)cc3)ccc2[nH]1 [Ia-12],50 to 75%

row,SMILES,inhibition at 10 µM
1,CCNC(=O)Nc1nc2cc(-c3cnc(NCc4ccc(OC)cc4)nc3)ccc2[nH]1 [Ia-49],> 75%
2,CCNC(=O)Nc1nc2cc(-c3cnc(NC(CO)C(=O)O)nc3)ccc2[nH]1 (stereo not drawn) [Ia-45],> 75%
3,CCNC(=O)Nc1nc2cc(C(=O)O)ccc2[nH]1 [Ia-33],< 50%
4,COC(=O)CCNc1nc2cc(-c3cccnc3)ccc2[nH]1 [Ia-75],< 50%
5,CCOC(=O)Nc1nc2cc(-c3ccc(=O)[nH]c3)ccc2[nH]1 [Ia-71],< 50%
6,CCNC(=O)Nc1nc2cc(-c3cnc(NC4CC4)nc3)ccc2[nH]1 [Ia-44],> 75%
7,CCNC(=O)Nc1nc2cc(-c3cncc(C(=O)OCC)c3)ccc2[nH]1 [Ia-59],> 75%
8,CCNC(=O)Nc1nc2cc(-c3cnc(N4CCN(C(C)=O)CC4)nc3)ccc2[nH]1 [Ia-113],> 75%
9,CCOC(=O)Nc1ncc(-c2ccc3[nH]c(NC(=O)OCC)nc3c2)cn1 [Ia-77],> 75%
10,CCOC(=O)Nc1nc2cc(-c3cnc(N)nc3)ccc2[nH]1 [Ia-72],> 75%
11,CCOC(=O)Nc1nc2cc(-c3cnc(N4CCN(S(C)(=O)=O)CC4)nc3)ccc2[nH]1 [Ia-91],< 50%
12,CCNC(=S)Nc1nc2cc(-c3cnc(NCC(=O)O)nc3)ccc2[nH]1 [Ia-39],> 75%
13,CCOC(=O)Nc1nc2cc(-c3ccccc3C(F)(F)F)ccc2[nH]1 [Ia-9],< 50%
14,CCOC(=O)Nc1nc2cc(-c3cccc(OCC)c3)ccc2[nH]1 [Ia-15],50 to 75%
15,CCOC(=O)Nc1nc2cc(-c3cnc(OC)nc3OC)ccc2[nH]1 [Ia-16],> 75%
16,O=C(Nc1nc2cc(-c3ccccc3)cc(Br)c2[nH]1)N1CCCCC1 [Ia-20],< 50%
17,CCNC(=O)Nc1nc2cc(-c3cnc(N)nc3)ccc2[nH]1 [Ia-54],> 75%
18,CCOC(=O)Nc1nc2cc(-c3cnc(NCC(=O)O)nc3)ccc2[nH]1 [Ia-80],> 75%
19,CCNC(=O)Nc1nc2cc(-c3cnc(NCc4ccc(F)c(Cl)c4)nc3)ccc2[nH]1 [Ia-61],> 75%
20,C#CCOC(=O)Nc1nc2cc(-c3ccccc3)ccc2[nH]1 [Ia-8],< 50%
21,CCNC(=S)Nc1nc2cc(-c3cccnc3)ccc2[nH]1 [Ia-34],> 75%
22,CCOC(=O)Nc1nc2cc(-c3cnc(OC)nc3)ccc2[nH]1 [Ia-22],> 75%
23,CN1CCCC1C(=O)Nc1nc2cc(-c3ccccc3)ccc2[nH]1 (stereo not drawn) [Ia-85],< 50%
24,CCNC(=O)Nc1nc2cc(-c3cnc(NCCN4CCCC4)nc3)ccc2[nH]1 [Ia-55],> 75%
25,CCNC(=O)Nc1nc2cc(-c3cnc(NCC(=O)O)nc3)ccc2[nH]1 [Ia-35],> 75%
26,Nc1nc2cc(-c3ccccc3)ccc2[nH]1 [Ia-6],< 50%
